Laboratory results from ChEMBL document CHEMBL5370560, “Isolation of Anti-SARS-CoV-2 Natural Products Extracted from Mentha canadensis and the Semi-synthesis of Antiviral Derivatives” (J Nat Prod, 2023).
Active and inactive are the calls of the source. The rule behind the calls is not given here.

How the values were obtained:
[1] = Cytotoxicity against African green monkey Vero E6 cells assessed as reduction in cell viability incubated for 48 hrs by MTT assay; format: toxicity, cell-based, Vero C1008; settings: chlorocebus sabaeus
SARS-CoV-2 [2] = experiment: Antiviral activity against SARS-CoV-2 Omicron BA.1 infected in African green monkey Vero E6 cells assessed as inhibition of plaque formation at 0.5 uM incubated for 1 hr followed by virus-drug mixture washout and further addition of media without compound for 5 to 7 days by crystal violet staining based assay; format: functional, organism-based; settings: Severe acute respiratory syndrome coronavirus 2
SARS-CoV-2 [3] = experiment: Antiviral activity against SARS-CoV-2 Omicron BA.1 infected in African green monkey Vero E6 cells assessed as inhibition of plaque formation at 50 uM incubated for 1 hr followed by virus-drug mixture washout and further addition of media without compound for 5 to 7 days by crystal violet staining based assay relative to control; format: functional, Severe acute respiratory syndrome coronavirus 2; settings: for inhibition at 50 µM: Severe acute respiratory syndrome coronavirus 2, Omicron BA.1, Vero C1008
SARS-CoV-2 [4] = experiment: Antiviral activity against SARS-CoV-2 Delta infected in African green monkey Vero E6 cells assessed as inhibition of plaque formation at 50 uM incubated for 1 hr followed by virus-drug mixture washout and further addition of media without compound for 5 to 7 days by crystal violet staining based assay relative to control; format: functional, Severe acute respiratory syndrome coronavirus 2; settings: for inhibition at 50 µM: Severe acute respiratory syndrome coronavirus 2, Delta, Vero C1008
SARS-CoV-2 [5] = experiment: Antiviral activity against SARS-CoV-2 Delta infected in African green monkey Vero E6 cells assessed as inhibition of plaque formation at 0.5 uM incubated for 1 hr followed by virus-drug mixture washout and further addition of media without compound for 5 to 7 days by crystal violet staining based assay; format: functional, organism-based; settings: Severe acute respiratory syndrome coronavirus 2
SARS-CoV-2 [6] = experiment: Antiviral activity against SARS-CoV-2 Omicron BA.1 infected in African green monkey Vero E6 cells assessed as inhibition of plaque formation at 5 uM incubated for 1 hr followed by virus-drug mixture washout and further addition of media without compound for 5 to 7 days by crystal violet staining based assay relative to control; format: functional, Severe acute respiratory syndrome coronavirus 2; settings: for inhibition at 5 µM: Severe acute respiratory syndrome coronavirus 2, Omicron BA.1, Vero C1008
SARS-CoV-2 [7] = experiment: Antiviral activity against SARS-CoV-2 Delta infected in African green monkey Vero E6 cells assessed as inhibition of plaque formation at 5 uM incubated for 1 hr followed by virus-drug mixture washout and further addition of media without compound for 5 to 7 days by crystal violet staining based assay; format: functional, organism-based; settings: Severe acute respiratory syndrome coronavirus 2
SARS-CoV-2 [8] = experiment: Antiviral activity against SARS-CoV-2 Delta infected in African green monkey Vero E6 cells assessed as inhibition of plaque formation at 50 uM incubated for 1 hr followed by virus-drug mixture washout and further addition of media without compound for 5 to 7 days by crystal violet staining based assay; format: functional, organism-based; settings: Severe acute respiratory syndrome coronavirus 2
SARS-CoV-2 [9] = experiment: Synergistic antiviral activity against SARS-CoV-2 Omicron BA.1 infected in Vero E6 cells incubated for 1 hr in presence of ivermectin followed by virus-drug mixture washout and further addition of media without compound for 5 to 7 days by crystal violet staining based assay; format: functional, organism-based; settings: Severe acute respiratory syndrome coronavirus 2
SARS-CoV-2 [10] = experiment: Synergistic antiviral activity against SARS-CoV-2 Delta infected in Vero E6 cells incubated for 1 hr in presence of ivermectin followed by virus-drug mixture washout and further addition of media without compound for 5 to 7 days by crystal violet staining based assay; format: functional, organism-based; settings: Severe acute respiratory syndrome coronavirus 2
SARS-CoV-2 [11] = experiment: Antiviral activity against SARS-CoV-2 Omicron BA.1 infected in African green monkey Vero E6 cells assessed as inhibition of plaque formation at 0.5 uM incubated for 1 hr followed by virus-drug mixture washout and further addition of media without compound for 5 to 7 days by crystal violet staining based assay relative to control; format: functional, Severe acute respiratory syndrome coronavirus 2; settings: for inhibition at 0.5 µM: Severe acute respiratory syndrome coronavirus 2, Omicron BA.1, Vero C1008
SARS-CoV-2 [12] = experiment: Antiviral activity against SARS-CoV-2 Delta infected in African green monkey Vero E6 cells assessed as inhibition of plaque formation at 5 uM incubated for 1 hr followed by virus-drug mixture washout and further addition of media without compound for 5 to 7 days by crystal violet staining based assay relative to control; format: functional, Severe acute respiratory syndrome coronavirus 2; settings: for inhibition at 5 µM: Severe acute respiratory syndrome coronavirus 2, Delta, Vero C1008
SARS-CoV-2 [13] = experiment: Antiviral activity against SARS-CoV-2 infected in African green monkey Vero E6 cells preincubated for 1 hr followed by addition of fresh medium containing compounds and measured after 24 hrs by qRT-PCR analysis; format: functional, organism-based; settings: Severe acute respiratory syndrome coronavirus 2, Vero C1008
SARS-CoV-2 [14] = experiment: Antiviral activity against SARS-CoV-2 Omicron BA.1 infected in African green monkey Vero E6 cells assessed as inhibition of plaque formation at 100 uM incubated for 1 hr followed by virus-drug mixture washout and further addition of media without compound for 5 to 7 days by crystal violet staining based assay relative to control; format: functional; settings: Severe acute respiratory syndrome coronavirus 2, Omicron BA.1, Vero C1008
SARS-CoV-2 [15] = experiment: Antiviral activity against SARS-CoV-2 Delta infected in African green monkey Vero E6 cells assessed as inhibition of plaque formation at 100 uM incubated for 1 hr followed by virus-drug mixture washout and further addition of media without compound for 5 to 7 days by crystal violet staining based assay relative to control; format: functional; settings: Severe acute respiratory syndrome coronavirus 2, Delta, Vero C1008
SARS-CoV-2 [16] = experiment: Antiviral activity against SARS-CoV-2 Omicron BA.1 infected in African green monkey Vero E6 cells assessed as inhibition of plaque formation incubated for 1 hr followed by virus-drug mixture washout and further addition of media without compound for 5 to 7 days by crystal violet staining based assay; format: functional, organism-based; settings: Severe acute respiratory syndrome coronavirus 2, Omicron BA.1, Vero C1008
SARS-CoV-2 [17] = experiment: Antiviral activity against SARS-CoV-2 Delta infected in African green monkey Vero E6 cells assessed as inhibition of plaque formation incubated for 1 hr followed by virus-drug mixture washout and further addition of media without compound for 5 to 7 days by crystal violet staining based assay; format: functional, organism-based; settings: Severe acute respiratory syndrome coronavirus 2, Delta, Vero C1008
SARS-CoV-2 [18] = experiment: Antiviral activity against SARS-CoV-2 Delta infected in African green monkey Vero E6 cells assessed as inhibition of plaque formation at 0.5 uM incubated for 1 hr followed by virus-drug mixture washout and further addition of media without compound for 5 to 7 days by crystal violet staining based assay relative to control; format: functional, Severe acute respiratory syndrome coronavirus 2
[19] = target: Spike glycoprotein (Severe acute respiratory syndrome coronavirus 2) (UniProt P0DTC2); experiment: Binding affinity to NTA chip immobilised recombinant SARS-CoV-2 Delta spike protein RBD at 50 uM measured for 500 secs by SPR analysis; settings: time 500.0 sec
SARS-CoV-2 [20] = experiment: Antiviral activity against SARS-CoV-2 Omicron BA.1 infected in African green monkey Vero E6 cells assessed as inhibition of plaque formation at 50 uM incubated for 1 hr followed by virus-drug mixture washout and further addition of media without compound for 5 to 7 days by crystal violet staining based assay; format: functional, organism-based; settings: Severe acute respiratory syndrome coronavirus 2
SARS-CoV-2 [21] = experiment: Synergistic antiviral activity against SARS-CoV-2 Delta infected in Vero E6 cells assessed as reduction in plaque formation by measuring combination index at ED50 incubated for 1 hr in presence of ivermectin followed by virus-drug mixture washout and further addition of media without compound for 5 to 7 days by Chou-Talalay method; format: functional, Severe acute respiratory syndrome coronavirus 2
SARS-CoV-2 [22] = experiment: Synergistic antiviral activity against SARS-CoV-2 Omicron BA.1 infected in Vero E6 cells assessed as reduction in plaque formation by measuring combination index at ED50 incubated for 1 hr in presence of ivermectin followed by virus-drug mixture washout and further addition of media without compound for 5 to 7 days by Chou-Talalay method; format: functional, Severe acute respiratory syndrome coronavirus 2

Row | SMILES | CC50 at 48 h [1] [µM] | inhibition at 50 µM (SARS-CoV-2 [3]) [%] | inhibition at 50 µM (SARS-CoV-2 [4]) [%] | inhibition (SARS-CoV-2 [5]) | inhibition at 5 µM (SARS-CoV-2 [6]) [%] | inhibition (SARS-CoV-2 [7]) | other results
1 | O=C(/C=C/c1ccc(O)c(O)c1)O[C@H](Cc1ccc(O)c(O)c1)C(=O)N1CCOCC1 | > 100 | 23 | 8 | inactive | 19 | inactive | inhibition (SARS-CoV-2 [2]): inactive
2 | COc1cc(C(=O)O)cc(OC)c1O |  |  |  |  |  |  | inhibition (SARS-CoV-2 [8]): Active; Activity (SARS-CoV-2 [9]): inactive; Activity (SARS-CoV-2 [10]): inactive
3 | C#CCNC(=O)[C@@H](Cc1ccc(O)c(O)c1)OC(=O)/C=C/c1ccc(O)c(O)c1 | > 100 | 26 | 30 | inactive | 17 | inactive | inhibition at 0.5 µM (SARS-CoV-2 [11]): 17%
4 | COCCNC(=O)[C@@H](Cc1ccc(O)c(O)c1)OC(=O)/C=C/c1ccc(O)c(O)c1 | > 100 | 29 | 23 | inactive | 13 | inactive | inhibition (SARS-CoV-2 [2]): inactive
5 | O=C(/C=C/c1ccc(O)c(O)c1)O[C@H](Cc1ccc(O)c(O)c1)C(=O)NCc1ccco1 | > 100 | 66 | 20 | inactive | 29 | inactive | inhibition (SARS-CoV-2 [2]): inactive
6 | O=C(/C=C/c1ccc(O)c(O)c1)O[C@H](Cc1ccc(O)c(O)c1)C(=O)NCc1ccccc1 | > 100 | 58 | 57 | inactive | 17 |  | inhibition (SARS-CoV-2 [2]): inactive; inhibition at 5 µM (SARS-CoV-2 [12]): 18%
7 | O=C(O)[C@H](O)Cc1ccc(O)c(O)c1 |  | 40 | 19 |  |  |  | EC50 (SARS-CoV-2 [13]): 0.97 µM; inhibition at 100 µM (SARS-CoV-2 [14]): 40%; inhibition at 100 µM (SARS-CoV-2 [15]): 19%
8 | CCc1cccc(NC(=O)[C@@H](Cc2ccc(O)c(O)c2)OC(=O)/C=C/c2ccc(O)c(O)c2)c1 | 50.7 |  |  |  |  |  | IC50 (SARS-CoV-2 [16]): 2.7 µM; IC50 (SARS-CoV-2 [17]): 12.6 µM; inhibition (INH) (SARS-CoV-2 [11]): 24%; inhibition (INH) (SARS-CoV-2 [3]): 100%; inhibition (INH) (SARS-CoV-2 [4]): 100%; inhibition (INH) (SARS-CoV-2 [18]): 14%; inhibition (INH) (SARS-CoV-2 [6]): 57%; Activity [19]: inactive; inhibition (INH) (SARS-CoV-2 [12]): 53%
9 | O=C(/C=C/c1ccc(O)c(O)c1)O[C@H](Cc1ccc(O)c(O)c1)C(=O)N1CCCCC1 | > 100 | 67 | 33 | inactive | 38 | inactive | inhibition at 0.5 µM (SARS-CoV-2 [11]): 24%
10 | COc1c(O)c(OC)c2oc(-c3ccc(O)cc3)cc(=O)c2c1O |  |  |  |  |  |  | inhibition (SARS-CoV-2 [8]): Active
11 | O=C(/C=C/c1ccc(O)c(O)c1)O[C@H](Cc1ccc(O)c(O)c1)C(=O)O [ROSMARINIC ACID] |  | 33 | 7 |  |  |  | inhibition at 100 µM (SARS-CoV-2 [14]): 40%; inhibition at 100 µM (SARS-CoV-2 [15]): 9%
12 | O=C(O)/C=C/c1ccc(O)c(O)c1 [CAFFEIC ACID] |  | 36 | 23 |  |  |  | inhibition at 100 µM (SARS-CoV-2 [14]): 42%; inhibition at 100 µM (SARS-CoV-2 [15]): 29%
13 | CCCCCCNC(=O)[C@@H](Cc1ccc(O)c(O)c1)OC(=O)/C=C/c1ccc(O)c(O)c1 | > 100 | 77 | 95 | inactive | 21 |  | inhibition at 0.5 µM (SARS-CoV-2 [11]): 21%; inhibition at 5 µM (SARS-CoV-2 [12]): 23%
14 | O=C(/C=C/c1ccc(O)c(O)c1)O[C@H](Cc1ccc(O)c(O)c1)C(=O)NCCCCCCCl | > 100 | 66 | 75 | inactive | 29 |  | inhibition at 0.5 µM (SARS-CoV-2 [11]): 14%; inhibition at 5 µM (SARS-CoV-2 [12]): 18%
15 | CCCCCCCCCCCCNC(=O)[C@@H](Cc1ccc(O)c(O)c1)OC(=O)/C=C/c1ccc(O)c(O)c1 | 17.5 |  |  |  |  |  | inhibition (SARS-CoV-2 [8]): inactive; IC50 (SARS-CoV-2 [16]): 0.77 µM; IC50 (SARS-CoV-2 [17]): 0.93 µM; inhibition (INH) (SARS-CoV-2 [11]): 17%; inhibition (INH) (SARS-CoV-2 [18]): 15%; inhibition (INH) (SARS-CoV-2 [6]): 54%; Activity [19]: inactive; inhibition (SARS-CoV-2 [20]): inactive; inhibition (INH) (SARS-CoV-2 [12]): 78%
16 | COC(=O)[C@@H](Cc1ccc(O)c(O)c1)OC(=O)/C=C/c1ccc(O)c(O)c1 [METHYL ROSMARINATE] | > 1000 |  |  |  |  |  | inhibition (SARS-CoV-2 [8]): Active; CI (SARS-CoV-2 [21]): 1.74; IC50 (SARS-CoV-2 [16]): 57 µM; CI (SARS-CoV-2 [22]): 1.67; IC50 (SARS-CoV-2 [17]): 88.9 µM; Activity [19]: inactive
